We go through 9 molecules from ChEMBL document CHEMBL4627315, “Promising antifungal agents: A minireview” (2020).

Test [1] has as its system Saccharomyces cerevisiae. As to the kind of experiment: Antifungal activity against Saccharomyces cerevisiae. Type of test: functional.
Test [2] has as its system Cryptococcus neoformans. As to the kind of experiment: Antifungal activity against Cryptococcus neoformans. The format is functional.
The subject of test [3] is Fusarium graminearum. Briefly: Antifungal activity against Fusarium graminearum. Type of test: functional.
For test [4], the system named is Candida albicans. Briefly: Antifungal activity against Candida albicans assessed as zone of inhibition by serial dilution and disc diffusion method. The format is functional.
For test [5], the system named is Aspergillus flavus. Briefly: Antifungal activity against Aspergillus flavus assessed as zone of inhibition by serial dilution and disc diffusion method. The format is functional. Background: In agar diffusion tests the substance spreads into inoculated agar from a disc or well.
Test [6] has as its system Candida albicans. As to the kind of experiment: Potency index, ratio of Amphotericin B IZ to test compound IZ for Candida albicans assessed as zone of inhibition by serial dilution and disc diffusion method. The format is functional.
For test [7], the system named is Rhizopus. As to the kind of experiment: Potency index, ratio of Amphotericin B IZ to test compound IZ for Rhizopus assessed as zone of inhibition by serial dilution and disc diffusion method. Type of test: functional.
Test [8] has as its system Aspergillus flavus. Briefly: Potency index, ratio of Amphotericin B IZ to test compound IZ for Aspergillus flavus assessed as zone of inhibition by serial dilution and disc diffusion method. The format is functional.
Test [9] has as its system Rhizopus. Briefly: Antifungal activity against Rhizopus assessed as zone of inhibition by serial dilution and disc diffusion method. The format is functional.
The test system of test [10] is Aspergillus niger. Briefly: Potency index, ratio of Amphotericin B IZ to test compound IZ for Aspergillus niger assessed as zone of inhibition by serial dilution and disc diffusion method. Type of test: functional.
Test [11] concerns Aspergillus niger. Briefly: Antifungal activity against Aspergillus niger assessed as zone of inhibition by serial dilution and disc diffusion method. The format is functional.
For test [12], the system named is Candida albicans. Briefly: Antifungal activity against Candida albicans assessed as zone of inhibition at 25 to 100 ug/ml. The format is functional.
The test system of test [13] is Cryptococcus gattii. Briefly: Antifungal activity against Cryptococcus gattii. The format is functional, Cryptococcus gattii VGI.

SMILES strings stand for the structures. ≈ marks a conversion by molar mass, not a printed value.

As usually defined, the MIC is the lowest concentration found to suppress growth. Lower therefore signals greater potency. On to `CCCCCCCCO[C@H]1[C@H](N)[C@@H](O)[C@@H](O[C@@H]2[C@@H](O)[C@H](O[C@H]3O[C@H](CN)[C@@H](O)[C@H](O)[C@H]3N)[C@@H](N)C[C@H]2N)O[C@@H]1C`, for which the MIC in [1] is 4 to 31.3 µg/mL (≈ 6.9 to 54 µM); in test [2] it was 3.9 to 7.8 µg/mL (≈ 6.73 to 13.5 µM); in test [3], 7.8 µg/mL (≈ 13.5 µM).

Take `Cc1nc(-c2ccc(F)c(Br)c2)n(CCN2CCNCC2)c1C`: the “inhibition zone (IZ)” value in [4], in [5], in test [9] and in test [11] was 18 - 21 mm in each case. The Ratio in test [6], in [7], in [8] and in test [10] was 1.5 - 2 each time.

On to `Cc1nc(-c2ccc(Cl)cc2)n(CCN2CCNCC2)c1C`, for which the “inhibition zone (IZ)” value in [4], in test [5], in test [9] and in [11] was 16 - 20 mm in each case. Besides, the Ratio in [6], in test [7], in [8] and in [10] was 1.5 - 2 in each case.

For `Cc1nc(-c2cccs2)n(CCN2CCNCC2)c1C`, the “inhibition zone (IZ)” value in test [4], in test [5], in test [9] and in [11] was 16 - 200 mm in each case.

For the molecule `Cc1nc(-c2ccc(F)cc2)n(CCN2CCNCC2)c1C`, the “inhibition zone (IZ)” value in test [4], in test [5], in [9] and in [11] was 16 - 22 mm throughout. Further, the Ratio in test [6], in test [7], in [8] and in test [10] was 1.5 - 2 throughout.

`C[C@@H]1[C@H](O)[C@@H](C)/C=C/C=C/C=C/C=C/C=C/C=C/C=C/[C@H](O[C@@H]2O[C@H](C)[C@@H](O)[C@H](N)[C@@H]2O)C[C@@H]2O[C@](O)(C[C@@H](O)C[C@@H](O)[C@H](O)CC[C@@H](O)C[C@@H](O)CC(=O)O[C@H]1C)C[C@H](O)[C@H]2C(=O)O` [AMPHOTERICIN B]: the “inhibition zone (IZ)” value in test [4], in test [5], in [9] and in [11] was 11 - 14 mm in each case.

In the case of `OC(Cn1cncn1)(Cn1cncn1)c1ccc(F)cc1F` [FLUCONAZOLE], the “inhibition zone (IZ)” value in test [12] is 2.6 - 2.8 cm.

Regarding `C/C(=C(/OCCOc1ccc(Cl)cc1)c1ccc(Cl)cc1Cl)n1ccnc1` [OMOCONAZOLE], the MIC in [13] was ≤ 4 µg/mL.

Take `Clc1ccc(CO/N=C(\Cn2ccnc2)c2ccc(Cl)cc2Cl)c(Cl)c1` [OXICONAZOLE]: in [13], the MIC is ≤ 4 µg/mL.
